Some test systems named below: UACC-62 melanoma; NCI-H23 lung; EKVX NSCLC; SN12C renal; LOX IMVI melanoma; SK-OV-3 ovarian; RXF 393 renal; SK-MEL-28 melanoma; NCI-H460 lung; HOP-62 NSCLC; TK-10 renal; MDA-MB-231 breast.
Common to all, as to assay: NCI-60 cell line screen, 48 h

Our source for the TGI values is PubChem BioAssay (NCI).

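Each compound was tested at five concentrations against cells in 96-well plates for 48 hours. TGI: concentration producing complete growth inhibition.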

Regarding `S=C(N/N=C\C=N/NC(=S)N1CCCCC1)N1CCCCC1`, the TGI was more than 100 µM in the assay with UACC-62 melanoma; more than 40.1 µM with NCI-H23 lung; more than 100 µM in the assay on EKVX NSCLC; more than 100 µM with SN12C renal; more than 100 µM with LOX IMVI melanoma; more than 100 µM in the assay with SK-OV-3 ovarian. Further, the TGI with RXF 393 renal was 6.06 µM; in the assay with SK-MEL-28 melanoma, more than 100 µM; in the assay on NCI-H460 lung, more than 41.5 µM; in the assay on HOP-62 NSCLC, more than 21.1 µM; in the assay on TK-10 renal it was more than 100 µM; with MDA-MB-231 breast, more than 100 µM.
`Cc1ccc(C(=O)Nc2ccc(CP(=O)(O)O)cc2CP(=O)(O)O)cc1NC(=O)c1cccc(N)c1`: the TGI in the assay on UACC-62 melanoma, in the assay on NCI-H23 lung, with EKVX NSCLC, in the assay with SN12C renal, with LOX IMVI melanoma and with SK-OV-3 ovarian was more than 100 µM each time. Moreover, the TGI in the assay with RXF 393 renal, in the assay on SK-MEL-28 melanoma, with NCI-H460 lung, in the assay on HOP-62 NSCLC, in the assay on TK-10 renal and in the assay on MDA-MB-231 breast was more than 100 µM in each case.
Regarding `COC(=O)C1(C(=O)OC)CC2=C(S(=O)(=O)c3ccccc3)C[C@H](S(=O)(=O)c3ccccc3)[C@H]2C1`, the TGI in the assay on UACC-62 melanoma was 71.6 µM; with NCI-H23 lung, more than 100 µM; in the assay on EKVX NSCLC it was more than 100 µM; in the assay on SN12C renal, more than 100 µM; in the assay on LOX IMVI melanoma, more than 100 µM; in the assay on SK-OV-3 ovarian, more than 100 µM. In addition, the TGI is 66.2 µM with RXF 393 renal; more than 100 µM in the assay with SK-MEL-28 melanoma; more than 100 µM in the assay with NCI-H460 lung; more than 100 µM in the assay with HOP-62 NSCLC; more than 100 µM with TK-10 renal; more than 100 µM in the assay on MDA-MB-231 breast.
Take `COc1cc(O)c(/C=N/N=C(\N)NO)c(OC)c1`: the TGI with UACC-62 melanoma, in the assay with NCI-H23 lung, in the assay on EKVX NSCLC, with SN12C renal, with LOX IMVI melanoma and with SK-OV-3 ovarian was more than 10 µM throughout. Further, the TGI with RXF 393 renal, in the assay with SK-MEL-28 melanoma, in the assay on NCI-H460 lung, with HOP-62 NSCLC, with TK-10 renal and in the assay on MDA-MB-231 breast was more than 10 µM each time.
As to `COc1ccc(-n2c(=O)c3[nH]cnc3n(-c3ccc(OC)cc3)c2=S)cc1`, the TGI in the assay with UACC-62 melanoma, in the assay on NCI-H23 lung, in the assay on EKVX NSCLC, with SN12C renal, with LOX IMVI melanoma and in the assay with SK-OV-3 ovarian was more than 100 µM throughout. The TGI in the assay with RXF 393 renal, with SK-MEL-28 melanoma, in the assay on NCI-H460 lung, in the assay with HOP-62 NSCLC, in the assay with TK-10 renal and in the assay on MDA-MB-231 breast was more than 100 µM each time.
Regarding `Cc1nnc2n1N=C(c1cc(F)c(Cl)cc1Cl)/C(=C/c1ccc(Cl)cc1)S2`, the TGI is 52.8 µM in the assay with UACC-62 melanoma; 48.8 µM in the assay on NCI-H23 lung; 28.6 µM in the assay on EKVX NSCLC; 36 µM in the assay with SN12C renal; 28.3 µM in the assay with LOX IMVI melanoma; more than 100 µM with SK-OV-3 ovarian. For the same compound, the TGI in the assay on RXF 393 renal was 40.5 µM; in the assay on SK-MEL-28 melanoma it was more than 100 µM; with NCI-H460 lung it was 38.9 µM; in the assay with HOP-62 NSCLC it was 31.2 µM; in the assay on TK-10 renal, more than 100 µM; with MDA-MB-231 breast, 47.6 µM.
For `O=C(/C=C/c1ccc(O)c([N+](=O)[O-])c1)CC(=O)/C=C/c1ccc(O)c([N+](=O)[O-])c1`, the TGI in the assay with UACC-62 melanoma is more than 100 µM; with NCI-H23 lung, more than 100 µM; in the assay with EKVX NSCLC, more than 100 µM; with SN12C renal, more than 100 µM; in the assay on LOX IMVI melanoma, 27.5 µM; in the assay on SK-OV-3 ovarian, more than 100 µM. The TGI is more than 100 µM with RXF 393 renal; more than 100 µM in the assay with SK-MEL-28 melanoma; more than 100 µM in the assay with NCI-H460 lung; more than 100 µM in the assay on HOP-62 NSCLC; more than 100 µM with TK-10 renal; 68 µM in the assay with MDA-MB-231 breast.
As for `COc1ccc(C2CC(c3c(O)ccc4ccccc34)=NN2c2ccc([N+](=O)[O-])cc2[N+](=O)[O-])cc1OC` (configuration not stated), the TGI in the assay on UACC-62 melanoma is more than 100 µM; in the assay with NCI-H23 lung it was more than 85.4 µM; with EKVX NSCLC, more than 67 µM; in the assay on SN12C renal, more than 100 µM; in the assay on LOX IMVI melanoma, more than 100 µM; in the assay with SK-OV-3 ovarian it was more than 88 µM. Further, the TGI in the assay with RXF 393 renal is more than 71.1 µM; in the assay on SK-MEL-28 melanoma, more than 100 µM; in the assay on NCI-H460 lung, more than 100 µM; in the assay on HOP-62 NSCLC, more than 71.7 µM; in the assay with TK-10 renal, more than 100 µM; in the assay with MDA-MB-231 breast, more than 68.8 µM.
For the compound `O=C(O)CN(CCNC(=O)OCC1c2ccccc2-c2ccccc21)CCNC(=O)OCC1c2ccccc2-c2ccccc21`, the TGI came out at 47.5 µM in the assay on UACC-62 melanoma; 49.6 µM in the assay on NCI-H23 lung; 52.5 µM in the assay on EKVX NSCLC; 80.1 µM with SN12C renal; 32.4 µM in the assay with LOX IMVI melanoma; 70.6 µM in the assay with SK-OV-3 ovarian. In addition, the TGI in the assay with RXF 393 renal came to 67.7 µM; in the assay on SK-MEL-28 melanoma, 42.1 µM; with NCI-H460 lung it was 41.2 µM; in the assay with HOP-62 NSCLC it was 44.7 µM; with TK-10 renal, 50.6 µM; in the assay on MDA-MB-231 breast, 31.9 µM.
Regarding `COc1cc(-c2cc(=O)c3cc4c(cc3[nH]2)OCO4)cc(OC)c1O`, the TGI in the assay on UACC-62 melanoma, in the assay on NCI-H23 lung, in the assay on EKVX NSCLC, in the assay with SN12C renal, in the assay with LOX IMVI melanoma and in the assay on SK-OV-3 ovarian was more than 10 µM in each case. The TGI in the assay on RXF 393 renal, in the assay with SK-MEL-28 melanoma, with NCI-H460 lung, with HOP-62 NSCLC, in the assay with TK-10 renal and with MDA-MB-231 breast was more than 10 µM each time.
Regarding `O=C(O)CSc1nnc(COc2ccc(Cl)cc2)n1-c1ccccc1`, the TGI with UACC-62 melanoma, in the assay on NCI-H23 lung, with EKVX NSCLC, in the assay with SN12C renal, with LOX IMVI melanoma and in the assay with SK-OV-3 ovarian was more than 100 µM in each case. Further, the TGI in the assay with RXF 393 renal, in the assay on SK-MEL-28 melanoma, with NCI-H460 lung, in the assay with HOP-62 NSCLC, in the assay with TK-10 renal and in the assay on MDA-MB-231 breast was more than 100 µM in each case.
